Reference: patent US9856288B2, “Tripeptide epoxyketone compound constructed by heterocycle and preparation method and use thereof” (ZHEJIANG UNIVERSITY, priority 2014, dated 2018)
Values joined by “and” are separate entries in the source; they are usually repeats but may differ in a detail not shown here. Equal entries are not always repeated. Where two headings read alike, the source gives them in different places. Each block holds one compound with its values, some of them ahead of it.

How the values were obtained:
[1] = system: RPMI8226 cell; assay: MTT proliferation inhibition, RPMI8226; details: Homo sapiens, RPMI-8226, 72 h, read-out: Cytotoxicity IC50 (nM) RPMI8226 cell
Protocol: (§3) Experimental Method: Cell viability was determined by MTT method preformed as follows. Cells grown at the logarithmic growth phase was digested with a 0.01% trypsin, counted, plated in a 96-cell plate at a cell density of 2.0*10^3/well for 100 ml, and cultured in a 5% CO2 incubator at a temperature of 37° C. overnight. For each of the compounds, a gradient of six concentrations were set, in triplicate for each concentration. […] 20 ml of 5 mg/ml MTT was added to each of the cells. After incubation at a temperature of 37° C. for 3 h, supernatant was removed by suction. 100 ml of DMSO was added for dissolution. Absorption at 550 nm (L1) was determined by using SpectraMAX 340 with a reference wavelength of 690 nm (L2). The values of (L1-L2) were plotted against various concentrations, and fitted into a formula to give IC50.

[2] = system: NCI-H929 cell; assay: MTT proliferation inhibition, NCI-H929; details: Homo sapiens, NCI-H929, 72 h, read-out: Cytotoxicity IC50 (nM) NCI-H929 cell
Protocol: as §3

[3] = system: subcutaneous xenograft of human myeloma RPMI 8226; assay: Growth inhibition of subcutaneous xenograft of human myeloma RPMI 8226 in NOD/SCID mice; assay type: in vivo; details: for Tumor inhibition (%) / Tumor weight (g) mean ± SD: RPMI8226 xenograft NOD/SCID mice; for Tumor weight (g), single animals: individual mice
Protocol: Experimental Method: Human myeloma RPMI8226 cell strain was inoculated subcutaneously at right flank of NOD/SCID mice with an inoculation quantity of 1×10^7 cells/mouse. After forming a xenograft, the experiment was started.
The diameters of subcutaneous xenografts of NOD/SCID mice were measured with a vernier caliper. After the tumor was grown to the size of 100-300 mm^3, the animals were grouped randomly. Equal volume of blank solvent was administered to the group of solvent control. During the experimentation, the diameters of subcutaneous xenografts were measured twice a week, and the mice were weighed at the same time.

[4] = system: MM-1S; assay: MTT cell activity, MM-1S; assay type: cell-based; details: Homo sapiens, MM1.S; 100 nM
Protocol: as §3

[5] = system: HELA; assay: MTT cell activity, HELA; assay type: cell-based; details: Homo sapiens
[6] = system: K562; assay: MTT cell activity, K562; assay type: cell-based; details: Homo sapiens
[7] = MTT cell activity, BORT; assay type: cell-based
Protocol: as §3

[8] = system: MCF-7; assay: MTT proliferation inhibition, MCF-7; assay type: cell-based; details: Homo sapiens, MCF7
Protocol: (§1) […] of DMSO was added for dissolution.
(§2) The experimental method may be referred to Test Example 2, except that the cell strains of RPMI8226 and NCI-H929 were replaced with corresponding tumor cells.

[9] = system: HCT116; assay: MTT proliferation inhibition, HCT116; assay type: cell-based; details: Homo sapiens
Protocol: as §1, §2

[10] = system: MM-1R; assay: MTT cell activity, MM-1R; assay type: cell-based; details: 100 nM
[11] = system: MGC-803; assay: MTT proliferation inhibition, MGC-803; assay type: cell-based; details: Homo sapiens
Protocol: as §1, §2

[12] = system: LP1; assay: MTT proliferation inhibition, LP1; assay type: cell-based; details: Homo sapiens, LP-1
Protocol: as §1, §2

[13] = system: PC-3; assay: MTT proliferation inhibition, PC-3; assay type: cell-based; details: Homo sapiens
Protocol: as §1, §2

[14] = MTT proliferation inhibition, RPMI8226
Protocol: as §3

[15] = MTT proliferation inhibition, NCI-H929
Protocol: as §3

[16] = biological target: Human proteasome chymotrypsin-like protease (Homo sapiens, UniProt P28074); assay: Proteasome CT-L inhibition, fluorescent substrate Suc-Leu-Leu-Val-Tyr-AMC; assay type: biochemical
From the text: Experimental Method: By using a fluorescent substrate Suc-Leu-Leu-Val-Tyr-AMC to observe the inhibition of various compounds on activity of the enzyme, the inhibitory effect of the compounds was preliminarily evaluated. Human proteasome chymotrypsin-like protease may hydrolyze the sequence Tyr-AMC of the substrate to release AMC.

[17] = biological target: proteasome T-L active site (Homo sapiens, UniProt Q99436); assay: Proteasome T-L inhibition, substrate Bz-Val-Gly-Arg-AMC; assay type: biochemical
[18] = biological target: proteasome PGPH active site (Homo sapiens, UniProt P28072); assay: Proteasome PGPH inhibition, substrate Z-Leu-Leu-Glu-AMC; assay type: biochemical

SMILES: CC(C)C[C@H](NC(=O)[C@H](Cc1ccccc1)NC(=O)c1cnccn1)B(O)O [Bortezomib]
IC50 [1]: 1.8 nM
IC50 [2]: 9.5 nM
Tumor inhibition (%) ([3]; 1 mg/kg): 34.78%
Tumor weight (g) mean ± SD ([3]; 1 mg/kg): 0.83 ± 0.25 g
Tumor weight (g), single animals ([3]; 1 mg/kg): 1.21 g and 0.38 g and 0.92 g and 0.90 g and 0.74 g and 0.80 g

IC50 [8]: 1.02 ± 0.07 µM
IC50 ([9]; HCT-116, MTT): 8.93 ± 1.44 µM
IC50 [11]: 8.95 ± 0.12 nM
IC50 [13]: 24.2 ± 2.72 µM
SMILES: CC(C)C[C@H](NC(=O)[C@H](CCc1ccccc1)NC(=O)CN1CCOCC1)C(=O)N[C@@H](Cc1ccccc1)C(=O)N[C@@H](CC(C)C)C(=O)[C@@]1(C)CO1 [Carfilzomib, reference compound]
IC50 [1]: 3 nM
IC50 [2]: 28.8 nM
activity at 0.1 µM [4]: 76.2 ± 1.36%
activity at 10 µM [5]: 61.2 ± 3.44%
Tumor inhibition (%) ([3]; 4 mg/kg): 58.10%
Tumor weight (g) mean ± SD ([3]; 4 mg/kg): 0.53 ± 0.21 g
Tumor weight (g), single animals ([3]; 4 mg/kg): 0.57 g and 0.38 g and 0.32 g and 0.85 g
activity at 10 µM [6]: 58.6 ± 1.04%
activity at 1 µM [7]: 61.1 ± 2.49%
activity at 0.1 µM [10]: 92.2 ± 6.34%
IC50 [12]: 22.7 ± 2.51 nM

IC50 [16]: 90.8 nM
SMILES: CC(C)C[C@H](NC(=O)N1CCN(C(=O)c2cnccn2)CC1)C(=O)N[C@@H](Cc1ccccc1)C(=O)N[C@@H](CC(C)C)C(=O)[C@@]1(C)CO1 [Compound 5c, 4-(pyrazin-2-oyl)piperazin-1-oyl-Leu-Phe-Leu-epoxy ketone]
IC50 [14]: 28.9 nM
IC50 [15]: 100 nM

IC50 [16]: 1.5 nM
IC50 [17]: 3180 ± 47.2 nM
T-L (Fold/CT-L) ([17]; ratio of T-L IC50 to CT-L IC50): (2107.0)
IC50 [8]: 0.42 ± 0.04 µM
IC50 ([9]; HCT-116, read-out: IC50 HCT116): 0.00572 ± 0.00072 µM
PGHP (Fold/CT-L) ([18]; ratio of PGHP IC50 to CT-L IC50): 321.0
IC50 ([18]; read-out: IC50 (nM) PGHP): 485 ± 26.1 nM
IC50 [11]: 3.72 ± 0.13 nM
IC50 [13]: 7.74 ± 0.77 µM
SMILES: CC(C)C[C@H](NC(=O)N1CCC(C(=O)Nc2ccccn2)CC1)C(=O)N[C@@H](Cc1ccccc1)C(=O)N[C@@H](CC(C)C)C(=O)[C@@]1(C)CO1 [Compound 5k, 4-(pyridin-2-yl carbamoyl)piperidin-1-oyl-Leu-Phe-Leu-epoxy ketone]
IC50 [14]: 2.5 nM
IC50 [15]: 15.3 nM
activity at 0.1 µM [4]: 72.2 ± 3.19%
activity at 10 µM [5]: 55.8 ± 3.53%
Tumor inhibition (%) ([3]; 4 mg/kg): 53.62%
Tumor weight (g) mean ± SD ([3]; 4 mg/kg): 0.59 ± 0.24 g
Tumor weight (g), single animals ([3]; 4 mg/kg): 0.20 g and 0.66 g and 0.44 g and 0.52 g and 0.72 g and 0.98 g
activity at 10 µM [6]: 55.6 ± 1.53%
activity at 1 µM [7]: 54.5 ± 2.13%
activity at 0.1 µM [10]: 88.2 ± 7.24%
IC50 [12]: 15.2 ± 2.82 nM

SMILES: CC(C)C[C@H](NC(=O)N1CCC(C(=O)Nc2cnccn2)CC1)C(=O)N[C@@H](Cc1ccccc1)C(=O)N[C@@H](CC(C)C)C(=O)C1(C)CS1 (stereo partly drawn) [Compound 5t, 4-(pyrazin-2-yl carbamoyl)piperidin-1-oyl-Leu-Phe-Leu-cyclothione]
IC50 [14]: > 1000 nM
IC50 [15]: > 1000 nM

SMILES: CC(C)C[C@H](NC(=O)N1CCC(C(=O)Nc2ccc(F)cc2)CC1)C(=O)N[C@@H](Cc1ccccc1)C(=O)N[C@@H](CC(C)C)C(=O)C1(C)CS1 (stereo partly drawn) [Compound 5u, 4-(4-fluorophenyl carbamoyl)piperidin-1-oyl-Leu-Phe-Leu-cyclothione]
IC50 [14]: > 1000 nM
IC50 [15]: > 1000 nM

SMILES: CC(C)C[C@H](NC(=O)N1CCC(C(=O)Nc2cnccn2)CC1)C(=O)N[C@@H](Cc1ccccc1)C(=O)N[C@@H](CC(C)C)C(=O)C1(C)CN1 (stereo partly drawn) [Compound 5v, 4-(pyrazin-2-yl carbamoyl)piperidin-1-oyl-Leu-Phe-Leu-aziridinone]
IC50 [14]: > 1000 nM
IC50 [15]: > 1000 nM

SMILES: CCN1CC1(C)C(=O)[C@H](CC(C)C)NC(=O)[C@H](Cc1ccccc1)NC(=O)[C@H](CC(C)C)NC(=O)N1CCC(C(=O)Nc2cnccn2)CC1 (stereo partly drawn) [Compound 5w, 4-(pyrazin-2-yl carbamoyl)piperidin-1-oyl-Leu-Phe-Leu-(N-ethyl aziridinone)]
IC50 [14]: > 1000 nM
IC50 [15]: > 1000 nM
